Results taken from PubChem BioAssay AID1340 (NMMLSC, 2008).

Biological target: Ras-related C3 botulinum toxin substrate 1 (Homo sapiens) (UniProt P63000)
Test: wildtype Rac1 GTP binding inhibitors, dose response, biochemical, multiplex bead flow cytometry (AID 1340)
Settings: GST-Rac1 beads, Bodipy-FL-GTP binding

NC(=S)N=Nc1c(O)[nH]c2ccc(F)cc12
EC50: 3.46 µM

COc1cc(/C=N/Nc2nnc3c(n2)[nH]c2ccccc23)ccc1O
EC50: 0.634 µM

COc1ccc(C(=O)/C=C/Nc2ccc(S(=O)(=O)Nc3nc(C)cc(C)n3)cc2)cc1OC
EC50: 3.12 µM
